Patent US5886011A, “Piperidine derivatives as substance P antagonists” (Hisamitsu Pharmaceutical Co., Inc., priority 1995, dated 1999)
Counter-ions that a name gives are not always drawn. Like-named read-outs stand apart in the source and are kept apart here.

Columns and labels:
[1] = target: T1, Substance P receptor (guinea pig ileum longitudinal muscle) (Cavia porcellus, UniProt P30547); assay: Receptor-binding test ([125I]SP ligand, guinea pig ileum longitudinal muscle receptor samples); conditions: 10^-8 M compound; [125I]SP 50 pM, 22° C., 20 minutes
T1 construct: ileum was removed and the longitudinal muscle was stripped off; from tissue; host or cells: guinea pig ileum longitudinal muscle, washed membrane pellets
Procedure: To the longitudinal muscles, 20 times of the wet weight of the buffer solution (1) (50 mM tris-HCl buffer solution containing 2 mM MgCl2 and 0.1 mM phenyl methyl sulfonyl-fluoride, pH 7.4) was added. The mixture was homogenized under ice-cooling and centrifuged at 48,000×G for 15 minutes. After removing the supernatant, the pellets were re-suspended in the buffer solution (1) and centrifuged at 48,000×G for 15 minutes. The buffer solution (2) (50 mM tris.HCl buffer solution containing 10 mM ethylenediaminetetraacetic acid and 300 mM KCl, pH 7.4) was added to the pellets and suspended to be reacted under ice-cooling for 60 minutes. The resulted reaction materials were centrifuged at 48,000×G for 15 minutes. After suspending the pellets in the buffer solution (1) and distributing, the mixture were centrifuged at 48,000×G for 15 minutes. The pellets were stored at -80° C. until used as receptor samples.
Thus obtained receptor samples were suspended in 50 mM tris-HCl buffer solution to be used. As the buffer solution, binding buffer solution (tris.HCl buffer solution containing 0.02% bovine serum albumin, 40 μg/ml bacitracin, 4 μg/ml chymostatin, 4 μg/ml leupeptin and 3 mM MnCl2, pH7.4) was used.

[2] = system: Substance P (guinea pig ileum); assay: Bioassay test: Substance P-induced contraction of guinea pig ileum strips; conditions: 10^-7 M compound; contraction by 10^-8 M Substance P regarded as 100%
Procedure: B. Bioassay Test […] After exsanguinating guinea pigs (body weight: 500-600 g) deadly, ileum was removed and 2 cm of ileum strips were prepared. In a Tyrode's solution (10 ml, 37° C.) in which air is passed, containing 5.2 μM atropine and 4.1 μM indomethacin, the strips having 0.5 g resting tension was suspended, and contractions of muscle were recorded on a recording device (RTA-1200, manufactured by Nihon Kohden) via an isotonic transducer (TB-612T, manufactured by Nihon Kohden). Using three specimens per one group, effects of the subject drugs on the muscle contraction caused by 10^-8 M Substance P were determined.

Substance P = assay: Antagonism test on Substance P-induced airway edema; assay type: in vivo, guinea pig (hartley male); conditions: Cavia porcellus, po, read-out: Inhibition Rate (airway edema, dye transudated into trachea and main bronchi)
Procedure: C. Antagonism Test on Substance P-induced Airway Edema
20 mg/kg of Evans' Blue and 1 nm/kg Substance P containing 200 I.U./kg of heparin were administered intravenously to hartley male guinea pigs in order to induce airway edema. After ten minutes, the guinea pigs were exsanguinated deadly. The amounts of the dye transudated into trachea and main bronchi were determined. 1 mg/kg of the subject compounds were administered orally at thirty minutes before the induction. […] Further, for comparison, the following compounds A and B were used.

cisplatin-induced emesis = assay: Anti-emetic effect against cisplatin-induced emesis; assay type: in vivo, ferret (male); conditions: 1 mg/kg orally just after cisplatin (10 mg/kg i.p.); compared to the control group
Procedure: D. Anti-emetic Effect against Cisplatin-induced Emesis
The test was carried out using male ferret (approx. 1.5 kg.). Emesis was induced by intraperitoneal administration of cisplatin (10 mg/kg). 1 mg/kg of the subject compounds were administered orally just after the cisplatin administration. The results will be shown in Table 3 as the inhibition rates compared to the control group, using the number of vomits as indexes. Further, for comparisons, the following compounds A and C were used.

[3] = 1 mg/kg orally, thirty minutes before induction, compared to the control group

T1 sequence (P30547 whole entry): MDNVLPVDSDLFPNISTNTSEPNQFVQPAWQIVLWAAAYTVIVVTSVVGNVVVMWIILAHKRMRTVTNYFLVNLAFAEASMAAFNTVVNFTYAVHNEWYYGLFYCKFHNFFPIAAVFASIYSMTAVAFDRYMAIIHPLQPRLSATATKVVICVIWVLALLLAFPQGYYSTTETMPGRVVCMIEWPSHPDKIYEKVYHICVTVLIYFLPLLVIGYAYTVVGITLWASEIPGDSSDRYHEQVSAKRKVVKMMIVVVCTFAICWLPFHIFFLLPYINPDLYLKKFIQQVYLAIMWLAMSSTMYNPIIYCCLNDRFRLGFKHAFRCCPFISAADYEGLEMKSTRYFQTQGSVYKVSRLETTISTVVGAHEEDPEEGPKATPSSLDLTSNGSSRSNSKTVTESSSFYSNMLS

Compound: CC1Oc2c(CN[C@H]3CCCN[C@H]3c3ccccc3)cccc2C1C.Cl (stereo partly drawn) [Example 20, (2S,3S)-3-[(2,3-dimethyl-2,3-dihydrobenzofuran-7-yl)methyl]amino-2-phenylpiperidine hydrochloride]
- inhibition at 0.01 µM [1]: 65%
- Contriction Inhibition [2]: 38.9%

Compound: Cc1cc(CN[C@H]2CCCN[C@H]2c2ccccc2)c2c(c1)CC(C)(C)O2.Cl [Example 17, (2S,3S)-3-[(2,2,5-trimethyl-2,3-dihydrobenzofuran-7-yl)methyl]amino-2-phenylpiperidine hydrochloride]
- inhibition at 0.01 µM [1]: 94.2%
- Contriction Inhibition [2]: 94.6%

Compound: Cl.c1ccc([C@@H]2NCCC[C@@H]2NCc2cc(C3CCCCC3)cc3c2OCC3)cc1 [Example 26, (2S,3S)-3-[(5-cyclohexyl-2,3-dihydrobenzofuran-7-yl)methyl]amino-2-phenylpiperidine hydrochloride]
- inhibition in vivo at 1 mg/kg (Substance P; [3]): 61%
- inhibition at 0.01 µM [1]: 56.4%
- Contriction Inhibition [2]: 62.1%

Compound: CC1Cc2cc(S(=O)(=O)N(C)C)cc(CN[C@H]3CCCN[C@H]3c3ccccc3)c2O1 (stereo partly drawn) [Example 8, (2S,3S)-3-[(5-dimethlaminosulfonyl-2-methyl-2,3-dihydrobenzofuran-7-yl)methyl]amino-2-phenylpiperidine hydrochloride]
- inhibition at 0.01 µM [1]: 92%
- Contriction Inhibition [2]: 85.0%

Compound: CC1Cc2cccc(CN[C@H]3CCCN[C@H]3c3ccccc3)c2O1.Cl (single isomer, unassigned) [Example 3, hydrochloride]
- inhibition at 0.01 µM [1]: 96%

Compound: COc1ccc(C(C)C)cc1CN[C@@H]1CN2CCC1CC2.Cl [Compound C, (2S,3S)-N-(5-isopropyl-2-methoxyphenyl)methyl-1-azabicyclo[2,2,2]octane-3-amine hydrochloride, reference compound]
- Inhibition Rate (number of vomits) (cisplatin-induced emesis): 10%

Compound: Cl.c1ccc([C@@H]2NCCC[C@@H]2NCc2cccc3c2OCC3)cc1 [Example 13, (2S,3S)-3-[(2,3-dihydrobenzofuran-7-yl)methyl]amino-2-phenylpiperidine hydrochloride]
- inhibition at 0.01 µM [1]: 84.7%
- Contriction Inhibition [2]: 47.4%

Compound: Cl.c1ccc([C@@H]2NCCC[C@@H]2NCc2ccc3c(c2)OCO3)cc1 [Example 9, (2S,3S)-3-(3,4-methylenedioxybenzyl)amino-2-phenylpiperidine hydrochloride]
- inhibition at 0.01 µM [1]: 36.6%
- Contriction Inhibition [2]: 5.5%

Compound: CC1(C)Cc2cccc(CN[C@H]3CCCN[C@H]3c3ccccc3)c2O1.Cl [Example 2, (2S,3S)-3-[(2,2-dimethyl-2,3-dihydrobenzofuran-7-yl)methyl]amino-2-phenylpiperidine hydrochloride]
- inhibition at 0.01 µM [1]: 74.8%
- Contriction Inhibition [2]: 47.0%

Compound: Cc1ccc(CN[C@H]2CCCN[C@H]2c2ccccc2)c2c1CC(C)(C)O2 [Example 16, (2S,3S)-3-[2,2,4-trimethyl-2,3-dihydrobenzofuran-7-yl)methyl]amino-2-phenylpiperidine hydrochloride]
- inhibition at 0.01 µM [1]: 82.5%
- Contriction Inhibition [2]: 78.3%

Compound: CC1Cc2cc(Cl)cc(CN[C@H]3CCCN[C@H]3c3ccccc3)c2O1.Cl (stereo partly drawn) [Example 14, (2S,3S)-3-[(5-chloro-2-methyl-2,3-dihydrobenzofuran-7-yl)methyl]amino-2-phenylpiperidine hydrochloride]
- inhibition at 0.01 µM [1]: 93.5%
- Contriction Inhibition [2]: 92.3%

Compound: Cl.c1ccc([C@@H]2NCCC[C@@H]2NCc2ccc3c(c2)OCCO3)cc1 [Example 19, (2S,3S)-3-(3,4-ethylenedioxybenzyl)amino-2-phenylpiperidine hydrochloride]
- inhibition at 0.01 µM [1]: 48.7%
- Contriction Inhibition [2]: 22.1%

Compound: COc1cc(CN[C@H]2CCCN[C@H]2c2ccccc2)c2c(c1)CC(C)(C)O2 [Example 12, (2S,3S)-3-[(2,2-dimethyl-5-methoxy-2,3-dihydrobenzofuran-7-yl)methyl]amino-2-phenylpiperldine hydrochloride]
- inhibition at 0.01 µM [1]: 82.2%
- Contriction Inhibition [2]: 43.0%

Compound: CC1(C)Cc2cc(S(C)(=O)=O)cc(CN[C@H]3CCCN[C@H]3c3ccccc3)c2O1.Cl [Example 6, (2S,3S)-3-[(2,2-dimethyl-5-methylsulfonyl-2,3-dihydrobenzofuran-7-yl)methyl]amino-2-phenylpiperidine hydrochloride]
- inhibition at 0.01 µM [1]: 74.8%
- Contriction Inhibition [2]: 50.9%

Compound: COc1ccc(OC(F)(F)F)cc1CN[C@H]1CCCN[C@H]1c1ccccc1 [Compound B, (2S,3S)-3-(2-methoxy-5-trifluoromethoxybenzyl)amino-2-phenylpiperidine hydrochloride, reference compound]
- inhibition in vivo at 1 mg/kg (Substance P): 44%

Compound: Cc1ccc(CN[C@H]2CCCN[C@H]2c2ccccc2)c2c1C(C)C(C)O2.Cl (stereo partly drawn) [Example 21, (2S,3S)-3-[(2,3,4-trimethyl-2,3-dihydrobenzofuran-7-yl)methyl]amino-2-phenylpiperidine hydrochloride]
- inhibition at 0.01 µM [1]: 53.1%
- Contriction Inhibition [2]: 13.4%

Compound: CC1(C)Cc2cc(Cl)cc(CN[C@H]3CCCN[C@H]3c3ccccc3)c2O1.Cl [Example 11, (2S,3S)-3-[(5-chloro-2,2-dimethyl-2,3-dihydrobenzofuran-7-yl)methyl]amino-2-phenylpiperidine hydrochloride]
- inhibition at 0.01 µM [1]: 85.8%
- Contriction Inhibition [2]: 58.2%

Compound: CC1(C)Cc2c(Cl)ccc(CN[C@H]3CCCN[C@H]3c3ccccc3)c2O1.Cl [Example 18, (2S,3S)-3-[(4-chloro-2,2-dimethyl-2,3-dihydrobenzofuran-7-yl)methyl]amino-2-phenylpiperidine hydrochloride]
- inhibition at 0.01 µM [1]: 89.9%
- Contriction Inhibition [2]: 81.2%

Compound: CC1Cc2cccc(CN[C@H]3CCCN[C@H]3c3ccccc3)c2O1.Cl (single isomer, unassigned) [Example 3]
- Contriction Inhibition [2]: 93.2%

Compound: CSc1cc(CN[C@H]2CCCN[C@H]2c2ccccc2)c2c(c1)CC(C)(C)O2.Cl [Example 5, (2S,3S)-3-[(2,2-dimethyl-5-methylthio-2,3-dihydrobenzofuran-7-yl)methyl]amino-2-phenylpiperidine hydrochloride]
- inhibition at 0.01 µM [1]: 91.8%
- Contriction Inhibition [2]: 80.5%

Compound: CC1(C)Cc2cc([N+](=O)[O-])cc(CN[C@H]3CCCN[C@H]3c3ccccc3)c2O1.Cl [Example 4, (2S,3S)-3-[(2,2-dimethyl-5-nitro-2,3-dihydrobenzofuran-7-yl)methyl]amino-2-phenylpiperidine hydrochloride]
- inhibition at 0.01 µM [1]: 89.7%
- Contriction Inhibition [2]: 60.2%

Compound: CC(C)(C)c1cc2c(c(CN[C@H]3CCCN[C@H]3c3ccccc3)c1)OCC2.Cl [Example 24, (2S,3S)-3-[(5-tert-butyl-2,3-dihydrobenzofuran-7-yl)methyl]amino-2-phenylpiperidine hydrochloride]
- inhibition in vivo at 1 mg/kg (Substance P; [3]): 64%
- inhibition at 0.01 µM [1]: 50.3%
- Contriction Inhibition [2]: 69.5%

Compound: CN(C)S(=O)(=O)c1cc(CN[C@H]2CCCN[C@H]2c2ccccc2)c2c(c1)CC(C)(C)O2.Cl [Example 7, (2S,3S)-3-[(2,2-dimethyl-5-dimethylaminosulfonyl-2,3-dihydrobenzofuran-7-yl)methyl]amino-2-phenylpiperidine hydrochloride]
- inhibition at 0.01 µM [1]: 54%
- Contriction Inhibition [2]: 15.0%

Compound: COc1cc(CN[C@H]2CCCN[C@H]2c2ccccc2)c2c(c1)CC(C)O2.Cl (stereo partly drawn) [Example 15, (2S,3S)-3-[(5-methoxy-2-methyl-2,3-dihydrobenzofuran-7-yl)methyl]amino-2-phenylpiperidine hydrochloride]
- inhibition at 0.01 µM [1]: 88.1%
- Contriction Inhibition [2]: 75.2%

Compound: c1ccc([C@@H]2NCCC[C@@H]2NCc2cccc3c2OCCC3)cc1 [Example 10, (2S,3S)-3-[(3,4-dihydro-1,2-benzopyran-8-yl)methyl]amino-2-phenylpiperidinehydrochloride]
- inhibition at 0.01 µM [1]: 86.2%
- Contriction Inhibition [2]: 61.8%
